Patent US7758886B2, “Pharmaceutical aerosol composition” (Pari GmbH, priority 2003, dated 2010)
≈ marks a conversion by molar mass, not a printed value.

Assays:
[1] = Saturation solubility of budesonide in buffered aqueous tyloxapol / DMPC solutions (0.22 μm filtrate); format: physicochemical; conditions: for solubility: buffered aqueous tyloxapol/DMPC solution, aqueous with cosolvent or surfactant or cyclodextrin, thermodynamic from solid
Procedure: Buffered aqueous solutions of tyloxapol, DMPC and tyloxapol in a mixture with DMPC were prepared. The saturation solubility of budesonide in these solutions was measured by adding an excess of budesonide and treating the sample with heat and ultrasound and subsequently allowing it to stand for equilibration. The equilibrated samples were filtered through a membrane filter with a poor width of 0.22 μm and the content of budesonide in the filtrate was determined.

[2] = Colloidal solubilization of corticosteroid with non-ionic surfactant and lecithin (Lipoid S 100); format: physicochemical; conditions: for solubility: pH 4.5, aqueous with cosolvent or surfactant or cyclodextrin
Procedure: In analogy to example 2, colloidal solutions of budesonide were prepared using polysorbate 80 as non-ionic surfactant component (instead of tyloxapol) and lecithin of the commercial grade, Lipoid S 100, as phospholipid component. Citric acid and sodium citrate were used as buffer system to adjust the pH to 4.5. Sodium chloride (0.846% w/w) was used as osmotic excipient. Disodium edetate (0.01% w/w) was incorporated as stabilizer preventing oxidation.
The taste of the samples was acceptable. The average diameter of the colloidal structures ranged from about 40 to about 50 nm, with polydispersity indices of 0.2 to 0.3. The colloidal solution with the lowest concentration of the non-ionic surfactant and phospholipid component was also investigated by small angle X-ray scattering, which indicated the presence of colloidal structures which were probably in the form of unilamellar liposomes.
(§1) In analogy to example 9, colloidal solutions of budesonide were prepared using vitamin E TPGS as non-ionic surfactant component and lecithin of the commercial grade, Lipoid S 100, as phospholipid component. The other excipients and their content remained the same as in example 9.
The taste of the samples was acceptable. The particles size of the colloidal structures was about 50 to 55 nm, with polydispersity indices of 0.2 to 0.3.
as §1, with “using both” for “using”, “TPGS and polysorbate 80 in combination” for “TPGS”
In analogy to example 9, colloidal solutions of budesonide were prepared using macrogol-15-hydroxystearate as non-ionic surfactant component and lecithin of the commercial grade, Lipoid S 100, as phospholipid component. The other excipients and their content remained the same as in example 9.
In analogy to example 9, colloidal solutions of were prepared using polysorbate 80 as non-ionic surfactant component and lecithin of the commercial grade, Lipoid S 100, as phospholipid component. However, fluticasone propionate was used instead of budesonide as poorly water soluble active agent. The other excipients and their content remained the same as in example 9.

A solubility ([1]; Tyloxapol 0 wt %, DMPC 1 wt %) of 20 µg/mL (≈ 46.5 µM), a solubility ([1]; Tyloxapol 1 wt %, DMPC 0.5 wt %) of 268 µg/mL (≈ 622 µM) and a solubility ([1]; Tyloxapol 1.5 wt %, DMPC 0 wt %) of 204 µg/mL (≈ 474 µM) were found for CCCC1O[C@@H]2C[C@H]3[C@@H]4CCC5=CC(=O)C=C[C@]5(C)[C@H]4[C@@H](O)C[C@]3(C)[C@]2(C(=O)CO)O1 (stereo partly shown) [Budesonide, budesonide] in this work. For the same compound, the “Saturation concentration of budesonide in DMPC solutions” value ([1]; on further increasing the DMPC content) was “could not be increased”, the solubility ([2]; Polysorbate 80 0.10 wt.%, Lipoid S100 1.0 wt.%, pH 4.5, read-out: Budesonide solubilized) was 360 µg/mL and the solubility ([2]; Polysorbate 80 0.15 wt.%, Lipoid S100 1.5 wt.%, pH 4.5, read-out: Budesonide solubilized) was 430 µg/mL. The solubility ([2]; Polysorbate 80 0.25 wt.%, Lipoid S100 1.5 wt.%, pH 4.5, read-out: Budesonide solubilized) was 470 µg/mL, the solubility ([2]; Polysorbate 80 0.40 wt.%, Lipoid S100 1.5 wt.%, pH 4.5, read-out: Budesonide solubilized) was 500 µg/mL and the solubility ([2]; Polysorbate 80 0.50 wt.%, Lipoid S100 2.0 wt.%, pH 4.5, read-out: Budesonide solubilized) was 830 µg/mL. For the same compound, the solubility ([2]; Polysorbate 80 0.50 wt.%, Lipoid S100 3.0 wt.%, pH 4.5, read-out: Budesonide solubilized) was 1090 µg/mL, the solubility ([2]; Solutrol HS 15 0.10 wt.%, Lipoid S100 1.5 wt.%, read-out: Budesonide solubilized) was 430 µg/mL and the solubility ([2]; Solutrol HS 15 0.25 wt.%, Lipoid S100 1.5 wt.%, read-out: Budesonide solubilized) was 470 µg/mL. For the same compound, the solubility ([2]; Solutrol HS 15 0.50 wt.%, Lipoid S100 1.5 wt.%, read-out: Budesonide solubilized) was 480 µg/mL, the solubility ([2]; Vitamin E TPGS 0.10 wt.%, Lipoid S100 1.0 wt.%, read-out: Budesonide solubilized) was 370 µg/mL and the solubility ([2]; Vitamin E TPGS 0.10 wt.%, Lipoid S100 1.5 wt.%, read-out: Budesonide solubilized) was 440 µg/mL. For the same compound, the solubility ([2]; Vitamin E TPGS 0.25 wt.%, Lipoid S100 1.5 wt.%, read-out: Budesonide solubilized) was 460 µg/mL, the solubility ([2]; Vitamin E TPGS 0.50 wt.%, Lipoid S100 1.5 wt.%, read-out: Budesonide solubilized) was 480 µg/mL and the solubility ([2]; Vitamin E TPGS 0.50 wt.%, Lipoid S100 2.0 wt.%, read-out: Budesonide solubilized) was 800 µg/mL. It also gave a solubility ([2]; vitamin E TPGS 0.04 wt.-%, polysorbate 80 0.06 wt.-%, lecithin 1.0 wt.-%, read-out: Budesonide colloidally solubilized concentration) of 380 µg/mL and a solubility ([2]; vitamin E TPGS 0.2 wt.-%, polysorbate 80 0.3 wt.-%, lecithin 3.0 wt.-%, read-out: Budesonide colloidally solubilized concentration) of 950 µg/mL.

A Fluticasone prop. solubilized ([2]; Polysorbate 80 0.10 wt.%, Lipoid S100 1.0 wt.%) of 0.07 mg/mL and a solubility ([2]; Polysorbate 80 0.50 wt.%, Lipoid S100 3.0 wt.%, read-out: Fluticasone prop. solubilized) of 180 µg/mL were found for CCC(=O)O[C@]1(C(=O)SCF)[C@H](C)C[C@H]2[C@@H]3C[C@H](F)C4=CC(=O)C=C[C@]4(C)[C@@]3(F)[C@@H](O)C[C@@]21C [Fluticasone prop., fluticasone propionate] in this work.
